In PubChem BioAssay AID2060602 (Molecular Pharmacology Branch, DTP, NCI, 2025):
Where “and” joins values, the source holds several entries; their conditions need not be identical. Identical values can stand only once.

Test system: 648629-189-R-J1-PDC complex spheroids viability
Assay: Anticancer human tumor 648629-189-R-J1-PDC patient-derived bladder carcinoma cell line growth inhibition [CLK]
Settings: for viability, T/C: stronger effect = lower value
Text: A high-throughput screen of multi-cell type tumor spheroids was designed to identify active combinations of […] and targeted small molecules. Complex spheroids include a stromal component modeled by human endothelial cells (HUVEC) and fibroblasts modeled by human mesenchymal stem cells (MSCs). The concentration ranges selected for each drug and investigational agent were based upon clinically achievable concentrations if the clinical Cmax of the agent was known.
Compounds. The drugs and investigational agents: cirtuvivint (SM08502; NSC835563), CC-671 (NSC850746), vemurafenib (NSC761431), tapotoclax (NSC804041), sotorasib (NSC818433), adagrasib (NSC831453), MRTX-1133 (NSC836407), BAY2416964 (NSC825713), copanlisib (NSC816437), inavolisib (NSC800729), abemaciclib (NSC768073), osimertinib (NSC779217), entinostat (NSC756642), eltanexor (KPT-8602, NSC794443), venetoclax (NSC766270), ceralasertib (NSC777638), bortezomib (NSC756655), olaparib (NSC753686), talazoparib (NSC767125), alisertib (NSC759677), peposertib (NSC802822), gemcitabine (NSC613327), 5-fluorouracil (NSC19893), SN-38 (NSC673596), oxaliplatin (NSC266046), paclitaxel (NSC125973), and doxorubicin (NSC123127), were obtained from the National Cancer Institute (NCI) Developmental Therapeutics Program Chemical Repository. The FDA-approved anticancer drug set is available from the Developmental Therapeutics Program at https://dtp.cancer.gov/organization/dscb/obtaining/available plates.htm. […] The stock solutions were prepared in dimethyl sulfoxide (DMSO, Sigma-Aldrich, St. Louis, MO, cat. D2650), except for the platinum complexes which were prepared in saline (Quality Biological, Gaithersburg, MD, cat. 114-055-101), at 800-fold the tested concentration and stored at -70 degrees C prior to their use. All drugs and investigational agents were tested over a range starting from a high concentration at or near the clinical Cmax and decreasing in half-log increments. If the clinical Cmax for an agent had not been determined, the highest concentration tested was 10 microM.
Cell Culture. All cells were maintained in an incubator at 37 degrees C and 5% CO2 with 95% humidity. The PDC lines were cultured according to standard operating procedures established by the NCI PDMR. Briefly, all PDCs were thawed and cultured in Matrigel-coated flasks prepared with a working solution of 1X Ham's F-12 nutrient mix, without supplementation (Invitrogen, Waltham, MA, cat. 11765054), 100 U/mL penicillin-streptomycin (Invitrogen, cat. 15140122), and 2.5% Matrigel (Corning Inc., Corning, NY, cat. 354248) for the first three passages. The 947758-054-R-J2-PDC line was cultured in 6B/Colon 1A media, which includes advanced DMEM/F-12 (Thermo Fisher Scientific, cat. 12634028), 10 mM HEPES (Thermo Fisher Scientific, cat. 15630080), 1X GlutaMAX supplement (Thermo Fisher Scientific, cat. 35050061), 0.1 mg/mL primocin (InvivoGen, cat. ant-pm-2), 10% defined fetal bovine serum, heat inactivated (HyClone Laboratories Inc., cat. SH30070.03HI), 1.25 mM N-Acetyl-L-cysteine (Sigma-Aldrich, cat. A9165), 10 mM nicotinamide (Sigma-Aldrich, cat. N0636), 1X B-27 supplement (Thermo Fisher Scientific, cat. 17504044), 1X N-2 supplement (Thermo Fisher Scientific, cat. 17502048), and 10 microM Y-27632 dihydrochloride (Tocris Bioscience, cat. 1254). The 876862-298-R-J1-PDC was cultured in 6E media, which includes all 6B/Colon 1A media components plus 50% L-WRN conditioned media (ATCC, cat. CRL-3276), 50 ng/mL recombinant human EGF recombinant protein (hEGF; Thermo Fisher Scientific, cat. PHG0311), 10 ng/mL recombinant human fibroblast growth factor 10 (hGFG-10; PeproTech, cat. 100-26), 1 ng/mL recombinant human fibroblast growth factor 2 (hFGF-2; PeproTech, cat. 100-18B), and 1 µM prostaglandin E2 (PGE2; Tocris, cat. 2296). The 227483-062-R1-J1-PDC line was cultured in Panc media, containing all 6E components except hFGF-2, with the addition of 500 nM SB-431542 (Selleckchem, cat. S1067) and 10 nM gastrin (Tocris, cat. 3006). […]
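Throughout, for viability, T/C: drug exposure lasted seven days before viability readout; 100% = DMSO vehicle control wells.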

Row | SMILES | viability, T/C (compound 0.0316 µM) | viability, T/C (compound 0.1 µM) | viability, T/C (compound 0.316 µM) | viability, T/C (compound 1 µM) | viability, T/C (compound 3.16 µM) | viability, T/C (compound 10 µM) | IC50 (curve of compound) | other results
1 | C#Cc1c(F)ccc2cc(O)cc(-c3ncc4c(N5CC6CCC(C5)N6)nc(OCC56CCCN5CC(F)C6)nc4c3F)c12 (stereo not drawn) | 97.9% and 109% | 94.2% and 99.3% | 91.3% and 98% | 91% and 107% | 94.4% and 111% | 88.9% and 101% | > 10 µM | 
2 | C=C(F)C(=O)N1CCN(c2nc(OCC3CCCN3C)nc3c2CCN(c2cccc4cccc(Cl)c24)C3)CC1CC#N (stereo not drawn) | 103% and 97.9% | 97.9% and 98.3% | 101% and 99% | 87.8% and 95.9% | 98% and 93.7% | 0.23% and 0.2% | 5.55 µM and 5.42 µM | 
3 | C=CC(=O)N1CCN(c2nc(=O)n(-c3c(C)ccnc3C(C)C)c3nc(-c4c(O)cccc4F)c(F)cc23)C(C)C1 (stereo not drawn) | 84.4% and 97.4% | 95.1% and 95.9% | 99.2% and 102% | 106% and 98.1% | 104% and 96.5% | 89.5% and 94.4% | > 10 µM | 
4 | C=CC(=O)Nc1cc(Nc2nccc(-c3cn(C)c4ccccc34)n2)c(OC)cc1N(C)CCN(C)C |  |  |  |  |  |  | > 0.3 µM | viability, T/C (compound 0.000949 µM): 99.8% and 108%; viability, T/C (compound 0.003 µM): 92.8% and 88.8%; viability, T/C (compound 0.00949 µM): 103% and 107%; viability, T/C (compound 0.03 µM): 110% and 92.8%; viability, T/C (compound 0.0949 µM): 104% and 111%; viability, T/C (compound 0.3 µM): 83.7% and 87.5%
5 | CC(C)CC(NC(=O)C(Cc1ccccc1)NC(=O)c1cnccn1)B(O)O (stereo not drawn) |  |  |  |  |  |  | 0.00435 µM and 0.00255 µM | viability, T/C (compound 0.000949 µM): 93.5% and 99.9%; viability, T/C (compound 0.003 µM): 73.2% and 41.8%; viability, T/C (compound 0.00949 µM): 1.45% and 1.53%; viability, T/C (compound 0.03 µM): 0.27% and 1.43%; viability, T/C (compound 0.0949 µM): 0.2% and 0.17%; viability, T/C (compound 0.3 µM): 1.64% and 0.18%
6 | CC(CO)NC(=O)c1cc(-c2ccc(Cl)cc2)nn(-c2cnn(C)c2)c1=O (stereo not drawn) | 103% and 108% | 96.4% and 90.6% | 95.2% and 95.5% | 96.3% and 98.4% | 88.3% and 117% | 86.7% and 92.5% | > 10 µM | 
7 | CC(Nc1ccc2c(c1)OCCn1cc(N3C(=O)OCC3C(F)F)nc1-2)C(N)=O (stereo not drawn) | 106% and 92.8% | 99.8% and 111% | 89% and 83.4% | 82.8% and 76.1% | 54.4% and 56.5% | 38.2% and 46.5% | 4.86 µM and 6.82 µM | 
8 | CC1(C)CCC(CN2CCN(c3ccc(C(=O)NS(=O)(=O)c4ccc(NCC5CCOCC5)c([N+](=O)[O-])c4)c(Oc4cnc5[nH]ccc5c4)c3)CC2)=C(c2ccc(Cl)cc2)C1 | 102% and 96.3% | 94.1% and 86% | 99.4% and 93.7% | 88.7% and 93.4% | 84.9% and 93.4% | 62% and 110% | > 10 µM | 
9 | CC1COCCN1c1cc(C2(S(C)(=N)=O)CC2)nc(-c2ccnc3[nH]ccc23)n1 (stereo not drawn) | 103% and 105% | 96.5% and 93.5% | 108% and 97% | 87.4% and 95% | 47.8% and 45.4% | 23.8% and 18.8% | 2.93 µM and 2.84 µM | 
10 | CCCS(=O)(=O)Nc1ccc(F)c(C(=O)c2c[nH]c3ncc(-c4ccc(Cl)cc4)cc23)c1F | 99.7% and 107% | 97% and 82.6% | 98.6% and 98.2% | 104% and 93.3% | 108% and 90% | 32.9% and 19.8% | 7.51 µM and 6.09 µM | 
11 | CCN1CCN(Cc2ccc(Nc3ncc(F)c(-c4cc(F)c5nc(C)n(C(C)C)c5c4)n3)nc2)CC1 | 102% | 101% and 93.4% | 122% and 121% | 124% and 117% |  |  | > 1 µM | viability, T/C (compound 0.00316 µM): 104% and 106%; viability, T/C (compound 0.01 µM): 99.1% and 94.2%
12 | CCc1c2c(nc3ccc(O)cc13)-c1cc3c(c(=O)n1C2)COC(=O)[C@]3(O)CC | 6.99% and 10.1% | 5.22% and 6.99% | 4.52% and 6.06% | 3.5% and 4.41% |  |  | < 0.00316 µM | viability, T/C (compound 0.00316 µM): 43.1% and 28.1%; viability, T/C (compound 0.01 µM): 17.6% and 10.2%
13 | CN1CCN(c2cc(C(=O)Nc3cc4cc(-c5cnn(C)c5)ccc4cn3)ccn2)CC1 | 113% [middle of 12 runs] | 105% [middle of 12 runs] |  | 0.38% [middle of 11 runs] | 0.16% [middle of 7 runs] | 0.15% [middle of 7 runs] |  | IC50 (compound alone, run of 07/31/2023): 286 nM [middle of 11 runs]
14 | CNC(=O)c1ccc(Nc2nc(OC3CCCC3)c3c(-c4ccc5nc(C)oc5c4)c[nH]c3n2)c(OC)c1 | 108% [middle of 12 runs] | 88.3% [middle of 12 runs] | 28% [middle of 12 runs] | 19.8% [middle of 12 runs] | 19% [middle of 12 runs] | 20% [middle of 12 runs] |  | IC50 (compound alone, run of 08/01/2023): 209 nM [middle of 10 runs]
15 | COC1C=CCC(C)C(C)S(=O)(=O)NC(=O)c2ccc3c(c2)N(CC2CCC21)CC1(CCCc2cc(Cl)ccc21)CO3 (stereo not drawn) | 102% and 92.4% | 91% and 85% | 77% and 89.5% | 79% and 77.1% | 25.9% and 15.1% | 2.88% and 3.41% | 1.84 µM and 1.65 µM | 
16 | COc1c(OCCCN2CCOCC2)ccc2c3n(c(=NC(=O)c4cnc(N)nc4)nc12)CCN3 | 74.8% and 77.7% | 46% and 41.9% | 16.8% and 13.3% | 7.93% and 6.55% |  |  | 0.0783 µM and 0.0767 µM | viability, T/C (compound 0.00316 µM): 115% and 94.4%; viability, T/C (compound 0.01 µM): 90.3% and 90.5%
17 | Cn1ncnc1[C@H]1c2n[nH]c(=O)c3cc(F)cc(c23)N[C@@H]1c1ccc(F)cc1 | 73.8% and 77.2% | 67.4% and 71.5% |  |  |  |  | > 0.1 µM | viability, T/C (compound 0.000316 µM): 106% and 98.8%; viability, T/C (compound 0.001 µM): 84.9% and 101%; viability, T/C (compound 0.00316 µM): 99.2% and 97.4%; viability, T/C (compound 0.01 µM): 83.2% and 92.6%
18 | NC(=O)C(=Cn1cnc(-c2cc(C(F)(F)F)cc(C(F)(F)F)c2)n1)c1cncnc1 |  |  |  |  |  |  | 0.0593 µM and 0.0554 µM | viability, T/C (compound 0.00949 µM): 102% and 105%; viability, T/C (compound 0.03 µM): 86.1% and 84.8%; viability, T/C (compound 0.0949 µM): 24.7% and 19.3%; viability, T/C (compound 0.3 µM): 9.87% and 6.77%; viability, T/C (compound 0.949 µM): 3.5% and 4.03%; viability, T/C (compound 3 µM): 1.5% and 1.39%
19 | Nc1ccccc1NC(=O)c1ccc(CNC(=O)OCc2cccnc2)cc1 | 115% and 88% | 92.5% and 91.6% | 88.5% and 77.7% | 72.7% and 64% | 33% and 24.8% | 4.51% and 3.32% | 1.95 µM and 1.46 µM | 
20 | Nc1ccn(C2OC(CO)C(O)C2(F)F)c(=O)n1 (stereo not drawn) | 49.6% and 38.5% | 18.4% and 12.3% | 11.4% and 11% | 6.88% and 9.43% | 6.14% and 8.17% | 4.28% and 6.46% | < 0.0316 µM | 
21 | O=C(c1cc(Cc2n[nH]c(=O)c3ccccc23)ccc1F)N1CCN(C(=O)C2CC2)CC1 | 109% and 101% | 90.8% and 97.7% | 92% and 108% | 79.5% and 103% | 75.7% and 84.3% | 57.9% and 71.5% | > 10 µM | 
22 | O=c1[nH]cc(F)c(=O)[nH]1 | 101% and 97.3% | 92.7% and 84.2% | 80.1% and 69.3% | 57.8% and 36% | 29.1% and 31.9% | 19.3% and 26.1% | 1.31 µM and 0.632 µM | 
